Results: patent EP4238581A1, “TARGETED DELIVERY OF OLIGONUCLEOTIDES INTO EUKARYOTIC CELLS USING HYBRID MALTOSE/CYCLODEXTRIN POLYPLEXES” (Technische Universität Dresden e. V., priority 2022, dated 2023)

Tested on: 293T-PSCA cells
Assay: Endocytosis inhibitors and GFP transfection by scFv(AM1)-P-BAP hybrid polyplexes
Format: cell-based
Conditions: cells transfected with scFv(AM1)-P-BAP hybrid polyplexes loaded with MC encoding GFP; inhibitor concentration not given
Excerpt: To investigate if a receptor-mediated endocytosis contributes to uptake of scFv-P-BAP hybrid polyplexes clathrin-dependent and clathrin-independent endocytosis was blocked using chlorpromazine and filipin III.

## CN(C)CCCN1c2ccccc2Sc2ccc(Cl)cc21 [chlorpromazine]
  fraction of GFP-positive 293T-PSCA cells: significant decrease

## CCCCC[C@@H](O)[C@H]1C(=O)O[C@H](C)[C@@H](O)/C=C/C=C/C=C/C=C/C=C(\C)[C@@H](O)C[C@H](O)C[C@H](O)C[C@H](O)C[C@H](O)C[C@H](O)C[C@@H]1O [filipin III]
  fraction of GFP-positive 293T-PSCA cells: significant decrease
